Results reported in paper PMC6511062, “Preclinical candidate for the treatment of visceral leishmaniasis that acts through proteasome inhibition” (Proceedings of the National Academy of Sciences of the …, 2019).
Where two headings read alike, the source gives them in different places.

Tests used:
[1] = tested on: clinically-relevant Leishmania strains; test: Activity in clinically-relevant Leishmania strains; assay type: cell-based
Excerpt: Strain Leishmania EC50 (µM) Host Cell EC50 (µM)
Results from one or two (both values shown) biological replicates. […]

[2] = tested on: L. donovani axenic amastigotes; test: Axenic amastigote rate-of-kill assay; assay type: cell-based, Leishmania donovani
Protocol: T. cruzi4, Leishmania donovani axenic amastigote, cidal axenic amastigote and intra-macrophage drug sensitivity assays were conducted as previously described5,6.
The rate of kill of compound 8 was determined in axenic amastigotes using the previously described cidal axenic assay5, with one minor modification. Instead of a single readout at 72 h, multiple identical plates were used and read at different time points (24, 48, 72 h). Rate of kill curves showing the luminescence signal at each time point for each concentration were plotted.
5. Intrinsic clearance (CLint)
Test compound (0.5 µM) was incubated with female CD1 mouse liver microsomes (Xenotech LLC TM; 0.5 mg/mL 50 mM potassium phosphate buffer, pH7.4) and the reaction started with addition of excess NADPH (8 mg/mL 50 mM potassium phosphate buffer, pH7.4). Immediately, at time zero, then at 3, 6, 9, 15 and 30 minutes an aliquot (50 µL) of the incubation mixture was removed and mixed with acetonitrile (100 µL) to stop the reaction. […]
XLfit (idbs, UK) was used to calculate the exponential decay and consequently the rate constant (k) from the ratio of peak area of test compound to internal standard at each time-point. The rate of intrinsic clearance (CLint) of each test compound was then calculated using the following calculation: […]
Amastigote levels (as RLU, relative luminescence units) for each tested concentration plotted against time. […]

[3] = molecular target: T1, human purified 26S proteasome (Homo sapiens, UniProt P28074+P49721); test: Proteasome activity assay, chymotrypsin-like, purified human 26S; assay type: biochemical
T1 construct: purchased Boston Biochem
Protocol: Proteasome activity assays
Compounds were dispensed into black 384-well assay plates (Greiner) by acoustic dispensing (LabCyte ECHO). For potency determinations, eleven-point, one in three dilution curves were generated, with a top concentration of 100 µM. Three proteasome activities were measured using a commercially available indirect enzyme-based luminescent assay kit (Promega) with Suc-LLVY-aminoluciferin, Z-LRR-aminoluciferin and Z-nLPnLD-aminoluciferin used as substrates for chymotrypsin-like, trypsin-like and caspase-like activities, respectively. In addition to proteasome samples: L. donovani and THP1-enriched proteasomes, commercially available human purified 26S proteasome (Boston Biochem) was also assessed. Proteasome final assay concentration were 0.025 mg/ml for L. donovani and THP1-enriched proteasomes and 1 nM for human purified 26S proteasome. Proteasome solution was added to the plates containing the compounds one hour before adding the proteasome substrate solution.
Substrate solution was then added and after 30 min of incubation luminescent signal was measured in an Envision reader (PerkinElmer).

[4] = tested on: TA100
Protocol: (§1) oxidative metabolism system (S9-mix). The maximum concentration tested and […]
(§2) Compound 7a was tested in a bacterial mutation screening assay (Ames test) with Salmonella typhimurium TA1535, TA1537, TA98, TA100 and Escherichia coli WP2uvrA(pKM101) in the presence and absence of an exogenous mammalian […]
(§3) The bacterial mutation screening assay was a plate incorporation test carried out as previously described15 and according to current methodology. […]

[5] = tested on: TA1535
Protocol: as §1, §2, §3

[6] = with S9-mix, dose level 50 per plate
[7] = with S9-mix, dose level 150 per plate
[8] = with S9-mix, dose level 500 per plate
[9] = with S9-mix, dose level 1500 per plate
[10] = with S9-mix, dose level 2500 per plate
[11] = with S9-mix, dose level 5000 per plate
[12] = without S9-mix, dose level 50 per plate
[13] = without S9-mix, dose level 150 per plate
[14] = without S9-mix, dose level 500 per plate
[15] = without S9-mix, dose level 1500 per plate
[16] = without S9-mix, dose level 2500 per plate
[17] = without S9-mix, dose level 5000 per plate

O=C(Nc1ccc(F)c(-c2ccn3c(N4CCOCC4)cnc3n2)c1)N1CCCC1 [Compound 8]
EC50 ([1]; Leishmania, in vitro, clinical strains incl. LV9, SUKA001, DD8-WT, BHU1, read-out: EC50 against clinical strains): ~1000 nM
EC50 ([1]; Leishmania, strain MHOM/ET/67/HU3 (LV9), read-out: Leishmania EC50): 400 nM
EC50 ([1]; Leishmania, strain MHOM/IN/80/DD8, read-out: Leishmania EC50): 1600 nM
EC50 ([1]; Leishmania, strain MHOM/IN/2002/BHU1, read-out: Leishmania EC50): 600 nM
EC50 ([1]; Leishmania, strain SUKA001, read-out: Leishmania EC50): 500 nM
EC50 ([1]; strain MHOM/ET/67/HU3 (LV9), read-out: Leishmania EC50): 800 nM
minimum concentration inducing parasite cell death ([2]; after 72 h): 620 nM
time to kill ([2]; as compound concentrations were increased): 48 h
IC50 [3]: 13000 ± 880 nM
Mean revertants per plate [4, 6]: 123.0
Mean revertants per plate [4, 7]: 96.5
Mean revertants per plate [4, 8]: 106.5
Mean revertants per plate [4, 9]: 118.0
Mean revertants per plate [4, 10]: 101.0
Mean revertants per plate [4, 11]: 122.5
Mean revertants per plate [4, 12]: 99.0
Mean revertants per plate [4, 13]: 97.0
Mean revertants per plate [4, 14]: 86.0
Mean revertants per plate [4, 15]: 109.5
Mean revertants per plate [4, 16]: 91.5
Mean revertants per plate [4, 17]: 94.5
Mean revertants per plate [5, 6]: 12.0
Mean revertants per plate [5, 7]: 10.0
Mean revertants per plate [5, 8]: 17.5
Mean revertants per plate [5, 9]: 13.5
Mean revertants per plate [5, 10]: 12.5
Mean revertants per plate [5, 11]: 9.0
Mean revertants per plate [5, 12]: 19.0
Mean revertants per plate [5, 13]: 15.0
Mean revertants per plate [5, 14]: 21.5
Mean revertants per plate [5, 15]: 16.0
Mean revertants per plate [5, 16]: 15.5
Mean revertants per plate [5, 17]: 18.0
